Results reported in patent US20080287525A1, “Pharmaceuticals for treating or preventing oral diseases” (HAWLEY & HAZEL (BVI) COMPANY LIMITED, priority 2007, published 2008).

Columns and labels:
[1] = test system: Actinomyces viscosus (A. v) ATCC 27044; assay: Micro-dilution MIC test, A. v; assay type: cell-based; details: 37 °C, 18-24 h, unit not given, method gives concentrations in mg/L (ppm)
Protocol: (§1) A single colony was picked from the Trypticase Digested Soybean peptone agar blood plate (TSA5B) of ordinarily stored bacteria species and used to inoculate corresponding broth culture medium, which was cultivated in a microaerobic environment (P.g needs anaerobic cultivation) with 95% air, 5% CO2 at 37.0° C.±1.0° C., wherein S.m and S.sa were cultivated for 18-24 h, and the remaining five species were cultivated for 40-48 h. Then corresponding broth cultivate medium was used to adjust the turbidity of the bacteria suspension to 0.5 McFarland standard, equivalent to 1.0×10^8 CFU/mL.
(§2) The operating steps were:
(§3) a. Preparation of the stock solution of antibacterial pharmaceutical: 1% stock solution of various antibacterial pharmaceuticals was prepared with 100% pure ethanol as solvent. The prepared stock solution was filtered to eliminate bacteria, and was distributed into small portions to be used.
(§4) b. Range of measured concentration: the present experiment used 250 ppm as the ceiling measured concentration of the anti-bacterial pharmaceutical.
(§5) c. Measuring method: micro-dilution method. […]
(§6) The bacteria to be tested and standard bacteria were prepared using the same method as above. […] 0.12 mg/L, and the final inoculation quantity was about […] or 5×10^6 bacteria in each well. […]

[2] = test system: Streptococcus mutans (S. m) ATCC 25175; assay: Micro-dilution MIC test, S. m; assay type: cell-based; details: 37 °C, 18-24 h, unit not given, method gives concentrations in mg/L (ppm)
Protocol: as §1, §2, §3, §4, §5, §6

[3] = test system: Actinobacilus actinomycetemcomitans (A. a) ATCC 43717; assay: Micro-dilution MIC test, A. a; assay type: cell-based; details: 37 °C, 18-24 h, unit not given, method gives concentrations in mg/L (ppm)
Protocol: as §1, §2, §3, §4, §5, §6

[4] = test system: Actinomyces naeslundii (A. n) ATCC 12104; assay: Micro-dilution MIC test, A. n; assay type: cell-based; details: 37 °C, 18-24 h, unit not given, method gives concentrations in mg/L (ppm)
Protocol: as §1, §2, §3, §4, §5, §6

[5] = test system: Porphyromonas gingivalis (P. g) ATCC 33277; assay: Micro-dilution MIC test, P. g; assay type: cell-based; details: anaerobic, 37 °C, 18-24 h, unit not given, method gives concentrations in mg/L (ppm)
Protocol: as §1, §2, §3, §4, §5, §6

[6] = test system: Fusobacterium nucleatum subsp. Polymorphum (F. n) ATCC 10953; assay: Micro-dilution MIC test, F. n; assay type: cell-based; details: 37 °C, 18-24 h, unit not given, method gives concentrations in mg/L (ppm)
Protocol: as §1, §2, §3, §4, §5, §6

[7] = test system: Streptococcus sanguis (S. sa) ATCC 10556; assay: Micro-dilution MIC test, S. sa; assay type: cell-based; details: 37 °C, 18-24 h, unit not given, method gives concentrations in mg/L (ppm)
Protocol: as §1, §2, §3, §4, §5, §6

GM-CSF = assay: Anti-inflammatory test in KB cells, LUMINEX, GM-CSF; assay type: cell-based, human; details: KB cell supernatant, the larger the value, the stronger the anti-inflammatory ability
Protocol: (§7) Anti-inflammatory activity was assessed using the KB cell (the epidermis cancer cell in human oral cavity). During the experiment, the KB cell inoculated in the cultivating plate was treated with or without positive control or Mulberrofuran G. After the treatment, the supernatant of the cultivating medium was collected and stored in −80° C. refrigerator. Inflammation was assessed by measuring several inflammation markers: Prostaglandin E2 (PGE2) in the supernatant was detected by Enzyme-linked immunsorbent assay, and LUMINEX™ multifunctional liquid-phase chip analysis system was used for the detection of granulocyte monocyte colony stimulating factor (GM-CSF), tumor necrosis factor-alpha (TNF-α), and interleukins 1-beta and 6 ([…] and IL-6).
(§8) LUMINEX™ multifunctional liquid-phase chip analyses of GM-CSF, TNF-α, IL-1 and IL-6: The 96-well plate was enclosed with enclosing liquid for 30 minutes. Fluorescent microspheres were added into the 96-well plate after dilution. The standard and the samples to be measured were added, and incubated overnight at 4° C. The next day, the supernatant was discarded and 50 μL GM-CSF, TNF-α, IL-1β and IL-6 antibodies were added to each well. After being rinsed for 4 times, the 96-well plate was placed in a shaking table, which was in ambient temperature, to keep the plate away from light for one hour. […]

IL-1β = assay: Anti-inflammatory test in KB cells, LUMINEX, IL-1β; assay type: cell-based, human; details: KB cell supernatant, the larger the value, the stronger the anti-inflammatory ability
Protocol: as §7, §8

IL-6 = assay: Anti-inflammatory test in KB cells, LUMINEX, IL-6; assay type: cell-based, human; details: KB cell supernatant, the larger the value, the stronger the anti-inflammatory ability
Protocol: as §7, §8

TNF-α = assay: Anti-inflammatory test in KB cells, LUMINEX, TNF-α; assay type: cell-based, human; details: KB cell supernatant, the larger the value, the stronger the anti-inflammatory ability
Protocol: as §7, §8

MIC, A. v ATCC 27044 [1] | MIC, S. m ATCC 25175 [2] | MIC, A. a ATCC 43717 [3] | MIC, A. n ATCC 12104 [4] | MIC, P. g ATCC 33277 [5] | MIC, F. n ATCC 10953 [6] | MIC, S. sa ATCC 10556 [7] | SMILES | anti-inflammatory effect, GM-CSF (GM-CSF) [%] | anti-inflammatory effect, IL-1β (IL-1β) [%] | anti-inflammatory effect, IL-6 (IL-6) [%] | anti-inflammatory effect, TNF-α (TNF-α) [%]
2.4 | 3.9 | 2.4 | 1.9 | 1.9 | 7.8 | 7.8 | CC1=C[C@H]2c3c(O)cc(-c4cc5ccc(O)cc5o4)cc3O[C@@]3(c4ccc(O)cc4O)Oc4cc(O)ccc4[C@H](C1)[C@@H]23 [Mulberrofuran G, 3aH-Benzo[3,4][2]benzopyrano[1,8-bc][1]-benzopyran-4,11-diol, 8a-(2,4-dihydroxphenyl)-1,8a,13b,13c-tetrahydro-6-(6-hydroxy-2-benzofuranyl)-2-methyl-, (3a,S,8aS,13bS,13cR)-] | 8 | 18 | 48 | 90
– | – | – | – | – | – | – | Oc1cc(Cl)ccc1Oc1ccc(Cl)cc1Cl [Triclosan, reference compound] | – | 7 | 31 | 81
